ChEMBL document CHEMBL1156829 (Proc Natl Acad Sci U S A, 2008)

Legend:
[1] = NOVARTIS: Cytotoxicity against human hepatocellular carcinoma cell line (Huh7); type: toxicity, cell-based, Huh-7; details: Huh7 cells (hepatocellular carcinoma cell line)
[2] = tested on: Plasmodium falciparum; test: NOVARTIS: Inhibition of Plasmodium falciparum W2 (drug-resistant) proliferation in erythrocyte-based infection assay; type: functional, organism-based; details: Plasmodium falciparum, W2; read-out: EC50
[3] = tested on: Plasmodium falciparum; test: NOVARTIS: Inhibition of Plasmodium falciparum 3D7 (drug-susceptible) proliferation in erythrocyte-based infection assay; type: functional, organism-based; details: Plasmodium falciparum, 3D7

Compound	CC50 [1] [nM]	EC50 [2] [nM]	EC50 [3] [nM]
CC1=C(C(=O)OCCC(C)C)C(c2ccccc2)C(C(=O)OCCC(C)C)=C(C)N1	> 10000	> 1630	> 918
O=C(C1CC1)N1CCc2cc(Br)cc(S(=O)(=O)N3CCCCC3)c21	> 100000	2640	8140
CCOC(=O)C1=C(C)N=c2sc(=Cc3ccc(I)o3)c(=O)n2C1c1ccccc1Cl (stereo not drawn)	> 5490	570	1330
CCCCCN(C(=O)COc1ccc(Cl)cc1)C(CC)c1nc2ccccc2c(=O)n1-c1cccc(Cl)c1 (stereo not drawn)	> 10000	> 1380	1420
CN(C)CCN1CCN(c2ccnc3cc4ccccc4cc23)CC1	1550	369	108
CN(CCCNc1ccnc2cc(Cl)ccc12)S(=O)(=O)c1ccc2ccccc2c1	> 5540	200	282
CCOC(=O)CN(N=O)C1=C(N2CC2)C(=O)c2ccccc2C1=O	25400	3850	206
CCN1CCN(Cc2cc(=O)oc3cc(-c4ccccc4)c(O)cc23)CC1	12500	385	284
Cn1nc(C(F)(F)F)c(-c2ccc(F)cc2)c1NC(=O)Nc1ccc(F)cc1	23600	254	241
CCOc1cc(C2CC(=O)NC3=C2C(=O)CC(c2ccc(OC)cc2)C3)cc(Cl)c1O (stereo not drawn)	> 100000	285	612
Brc1ccc2[nH]c3c(NCCCN4CCOCC4)ncnc3c2c1	> 98700	957	359
CCOC(=O)c1cnc2ccc(OC)cc2c1Cl	> 100000	1250	2760
CN(C)CC(C)(C)CNCc1cc(-c2ccccc2)ccc1O	38000	6.53	66.1
CC(C)CN1C(=O)N(CCCc2cccnc2)C(=O)C12CCN(C1CCOCC1)CC2	> 100000	1420	> 12500
CCN1c2ccccc2N(C)C1(C)c1ccccc1 (stereo not drawn)	28800	49.3	46.5
CCOC(=O)c1nnn(-c2nonc2N)c1-c1ccc(Br)cc1	> 100000	230	287
COc1cc(/C=C2\SC(c3ccc(C)cc3)=NC2=O)cc(OC)c1OC	> 10000	> 1220	> 1250
CC(C)CNC(=O)c1cnc(NCCCN2CCCCC2C)nc1NC1CCCC1 (stereo not drawn)	> 10000	52.8	910
CC(=O)Nc1cccc(-c2cncc(-c3ccc(C(=O)O)cc3)n2)c1	> 100000	2250	1150
CN1CCc2c(sc3nc(SCc4ccc(Cl)cc4)n(-c4cccc(Cl)c4)c(=O)c23)C1	> 100000	363	1050
CCc1ccc(C2C(C(=O)Nc3ccccc3)=C(C)Nc3c(C(=O)Nc4ccc(C)cc4)cnn32)cc1 (stereo not drawn)	> 100000	554	1500
CCOC(=O)c1ccc(NCc2c(C)[nH]c3ccccc3c2=O)cc1	> 100000	254	342
CCCc1ccc(OCCNC(=O)CCNC(=O)Nc2cccc(Cl)c2)cc1	> 10000	> 999	> 1380
COC(=O)CNC(c1ccccc1)c1cc(Br)ccc1NC(=O)C(Cc1ccccc1)NC(=O)OCc1ccccc1 (stereo not drawn)	> 100000	1280	4080
C[N+](C)(C)c1ccc2cc(Br)c3ccccc3c2c1	> 10000	1370	759
CCOc1ccccc1C(=O)NC(Nc1sc2c(c1C(N)=O)CCCC2)(C(F)(F)F)C(F)(F)F	> 100000	2490	> 7500

Compound	CC50 [1] [nM]	EC50 [2] [nM]	EC50 [3] [nM]
COc1ccc(C(=O)NCCc2ccc(C)cc2)cc1OC1CCN(C(C)=O)CC1	> 100000	2520	> 9060
CN(C)c1ccc(NC(=O)C2C3C=CC(O3)C2C(=O)O)cc1 (stereo not drawn)	32800	47.7	120
O=C(Nc1ccc(C(F)(F)F)cc1)c1cc(S(=O)(=O)NC2CCCCCC2)ccc1F	17700	3330	4000
Cc1c2ccccc2c(C)c2ccccc12	21600	827	803
CC1=C(C(=O)OC(C)C)C(c2ccc([N+](=O)[O-])cc2)C2=C(CC(c3ccc(Cl)cc3)CC2=O)N1 (stereo not drawn)	> 100000	56.3	1190
FC(F)(F)COc1nc(N2CCCCC2)nc(N(c2ccccc2)c2ccccc2)n1	> 100000	2790	> 5970
Oc1cccc(Nc2nc(NCc3ccco3)c3ccccc3n2)c1	11500	279	275
O=C(Nn1c(SCc2cc(=O)n3ccccc3n2)nc2ccsc2c1=O)c1cccc(Br)c1	> 10000	> 695	> 928
S=C(NCc1ccco1)NN=CC=NNC(=S)NCc1ccco1	> 10000	113	121
NC(Cc1ccccc1)C(=O)N1CCn2c(nc(-c3ccccc3)c2Nc2ccc3c(c2)OCO3)C1 (stereo not drawn)	42800	29.1	30.4
COc1ccc(-c2noc(CNC(=O)c3cccc(I)c3)n2)cc1	> 100000	1580	> 12500
Oc1ccc(-c2ccccc2)cc1CN1CCCCC1	> 10000	132	1080
C=CCOc1ccc(C2C(C(=O)OCC)=C(C)N=c3sc(=Cc4ccccc4O)c(=O)n32)cc1OCC (stereo not drawn)	53300	263	608
CN(CCCNc1ccnc2cc(Cl)ccc12)C(=O)COc1ccccc1	> 10000	286	98.3
CC[n+]1c(C=C2C=C(C)OC(C)=C2)sc2ccccc21	> 32000	119	147
O=C1CC(N2CCCCCC2)C(=O)N1c1ccc(N2C(=O)CC(N3CCCCCC3)C2=O)cc1 (stereo not drawn)	> 10000	> 155	> 1250
O=C(C=Cc1ccccc1)Nc1ccc(-c2nc3cc(NC(=O)C=Cc4ccccc4)ccc3[nH]2)cc1	5700	116	56
CCOC(=O)c1cnc2ccc(OC)cc2c1NCc1cccs1	> 100000	3720	5900
CCCCOc1ccc(N(C(C)=O)C2=C(N3CCCCC3)C(=O)c3ccccc3C2=O)cc1	54400	4.14	5.64
CC(C)(C)C(/C=C/c1ccc(Cl)cc1Cl)n1nnnc1C1(Nc2ccc(Cl)cc2)CCCCC1 (stereo not drawn)	> 10000	> 1050	> 1250
O=C(CN1CCCC1)Nc1c2c(nc3c1CCC3)CCC2	> 10000	> 462	> 1250
Cc1ccc(C)c(Nc2nc(NCC3CCCO3)c3ccccc3n2)c1 (stereo not drawn)	18600	1540	1530
CN(C)CCCNc1ncc(C(=O)NCCc2ccccc2)c(NCC2CCCCC2)n1	> 10000	> 1250	1240
Cc1ccc(-c2cn3c([n+]2-c2ccc(C)cc2)CCCCC3)cc1	10900	459	999
CC(=O)c1ccc(N2C(C)c3nc4ccccc4c(=O)n3C2c2cccc(O)c2)cc1 (stereo not drawn)	> 10000	646	1050
